Values of other authors as cited in patent publication US20210330614A1, “PROCESS FOR MANUFACTURING PHENYLEPHRINE RESINATE PARTICLES; PHENYLEPHRINE RESINATE PARTICLES; AND USE OF PHENYLEPHRINE RESINATE PARTICLES IN PHARMACEUTICAL FORMULATIONS” (Johnson & Johnson Consumer Inc., priority 2014, published 2021).

Legend:
[1] = therapeutic dose
[2] = 30 mg dose administered orally over eight hours

Row | SMILES | excreted unchanged in the urine, % of dose [1] | metabolized to m-hydroxy-phenylglycol-sulfate, % of the dose [2] | metabolized to m-hydroxymandelic acid, % of the dose [2] | metabolized to phenylephrine-glucuronide, % of the dose [2] | metabolized to phenylephrine-sulfate, % of the dose [2]
1 | CC(=O)Nc1ccc(O)cc1 [acetaminophen, Acetaminophen] | Less than 9% |  |  |  | 
2 | CNC[C@H](O)c1cccc(O)c1.Cl [phenylephrine, (R)-1-(3-hydroxyphenyl)-2-methylaminoethanol] |  | 6% | 30% | 12% | 47%
